This is an account of results in US7736624B2, “Methods and compositions for diagnostic and therapeutic targeting of COX-2” (priority 2006, dated 2010).

pIC50: −log10 of the molar value. Like-named read-outs stand apart in the source and are kept apart here. Where only a bound is given, the exact number is not on record here.

The target in one assay is T1, COX-2 (Homo sapiens, UniProt P35354).
T1 sequence (P35354 18-604): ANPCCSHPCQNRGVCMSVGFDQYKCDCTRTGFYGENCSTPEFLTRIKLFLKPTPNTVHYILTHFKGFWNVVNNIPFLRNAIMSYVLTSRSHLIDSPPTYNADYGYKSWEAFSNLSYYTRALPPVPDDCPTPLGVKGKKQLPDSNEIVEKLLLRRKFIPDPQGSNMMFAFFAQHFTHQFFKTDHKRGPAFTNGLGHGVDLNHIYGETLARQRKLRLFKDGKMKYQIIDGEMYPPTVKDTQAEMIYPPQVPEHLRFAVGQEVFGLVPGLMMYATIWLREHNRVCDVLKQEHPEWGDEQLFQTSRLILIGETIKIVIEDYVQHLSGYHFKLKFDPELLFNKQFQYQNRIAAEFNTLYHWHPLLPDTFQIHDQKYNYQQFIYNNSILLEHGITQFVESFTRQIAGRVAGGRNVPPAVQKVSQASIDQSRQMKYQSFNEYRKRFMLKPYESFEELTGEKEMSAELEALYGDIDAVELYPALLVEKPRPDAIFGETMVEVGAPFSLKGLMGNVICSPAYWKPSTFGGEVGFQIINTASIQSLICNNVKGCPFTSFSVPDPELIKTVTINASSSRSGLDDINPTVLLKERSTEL
As to the kind of experiment: IC50 determinations using purified enzymes (TLC assay), COX-2. Format: biochemical. Also noted: made in house; host or cells: Sf9 insect cells. An excerpt:
(§1) Those skilled in the art will appreciate that an evaluation of the selectivity and efficacy of binding of the NSAID derivative to the COX-2 enzyme, e.g., after the derivative is synthesized, can be desirable. […] One example of an in vitro screening method takes advantage of the fact that both human and murine recombinant COX-2 can be expressed and isolated in pure form from an Sf9 cell expression system. […] Alternatively, membrane preparations from outdated human platelets can provide a source of human COX-1. […] The reaction is stopped by the addition of ethanol/methanol/1 M citrate, pH 4.0 (30:4:1). The extracted products are separated by thin layer chromatography (TLC), which allows quantitation of total product formation as well as assessment of product distribution. This assay is useful to define IC50 values for inhibition of either enzyme, and to determine time-dependency of inhibition. It also provides information concerning changes in products formed as a result of inhibition.
(§2) Reactions were terminated by solvent extraction in Et2O/CH3OH/1 M citrate, pH 4.0 (30:4:1). The phases were separated by centrifugation at 2000 g for 5 minutes and the organic phase was spotted on a 20×20 cm TLC plate (Lieselgel 60, EMD Chemicals, Inc., Gibbstown, N.J., United States of America). The plate was developed in EtOAc/CH2Cl2/glacial AcOH (75:25:1) at 4° C. Radiolabeled prostanoid products were quantitatively determined with a radioactivity scanner available from Bioscan, Inc. (Washington, D.C., United States of America). The percentage of total products observed at different concentrations of the presently disclosed compositions was divided by the percentage of products observed for protein samples preincubated for the same amount of time with DMSO.

A further assay has as its target T2, ovine COX-1 (Ovis aries, UniProt P05979).
T2 construct: can be purified from ovine seminal vesicles by standard procedures; from tissue; host or cells: ovine seminal vesicles
T2 sequence (P05979 25-600): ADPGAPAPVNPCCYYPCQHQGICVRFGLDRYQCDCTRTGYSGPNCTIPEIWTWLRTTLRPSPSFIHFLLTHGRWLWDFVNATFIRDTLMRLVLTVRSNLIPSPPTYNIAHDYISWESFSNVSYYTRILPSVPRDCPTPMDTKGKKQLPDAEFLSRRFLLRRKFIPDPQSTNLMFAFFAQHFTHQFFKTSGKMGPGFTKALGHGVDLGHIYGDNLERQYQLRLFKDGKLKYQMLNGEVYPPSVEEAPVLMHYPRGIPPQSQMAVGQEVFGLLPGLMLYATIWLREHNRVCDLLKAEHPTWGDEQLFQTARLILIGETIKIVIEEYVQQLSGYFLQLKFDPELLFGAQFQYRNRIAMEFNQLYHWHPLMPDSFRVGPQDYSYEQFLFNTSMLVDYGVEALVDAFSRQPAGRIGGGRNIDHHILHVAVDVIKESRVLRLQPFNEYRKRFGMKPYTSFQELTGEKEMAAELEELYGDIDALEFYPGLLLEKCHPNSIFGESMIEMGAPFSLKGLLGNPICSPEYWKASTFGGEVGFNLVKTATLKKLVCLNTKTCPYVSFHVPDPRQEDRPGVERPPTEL
As to the kind of experiment: IC50 determinations using purified enzymes (TLC assay), COX-1. In kind it is biochemical. Conditions: assayed against purified enzymes.
Source text: as §1, §2

Where [1] appears, read: Table 3, assayed against purified enzymes, read-out: IC50 COX-2.
Where [2] appears, read: Table 2, assayed against purified enzymes, read-out: IC50 COX-2.

As usually defined, the pIC50 is the negative decadic logarithm of the IC50, by convention in mol/L. Turning to `COc1ccc2c(c1)c(CC(=O)NCCNC(=S)Nc1ccc(-c3c4ccc(=O)cc-4oc4cc(O)ccc34)c(C(=O)O)c1)c(C)n2C(=O)c1ccc(Cl)cc1` [Compound 27jj], the results for the pIC50 on COX-2 (setting [1]) and against ovine COX-1 (Table 3) were below 4.60 and 5.27, respectively.
On the same counts, the results for `COc1ccc2c(c1)c(CC(=O)NCCCNC(=O)c1ccc(C(=O)[O-])c(-c3c4ccc(=[N+](C)C)cc-4oc4cc(N(C)C)ccc34)c1)c(C)n2C(=O)c1ccc(Cl)cc1` [Compound 27aaa] are 5.41 and below 4.60.
In the case of `COc1ccc2c(c1)c(CC(=O)NCCCCNC(=O)c1ccc(C(=O)O)c(-c3c4cc(F)c(=O)cc-4oc4cc(O)c(F)cc34)c1)c(C)n2C(=O)c1ccc(Cl)cc1` [Compound 27mm], the pIC50 was 5.49 at COX-2 (setting [1]) and 4.65 on ovine COX-1 (Table 3).
With `Cc1ccc(-c2cc(CCC(=O)NCCNC(=O)c3ccc(C(=O)[O-])c(C4=c5cc6c7c(c5Oc5c4cc4c8c5CCCN8CCC4)CCC[N+]=7CCC6)c3)nn2-c2ccc(S(C)(=O)=O)cc2)cc1` [Compound 29h], the pIC50 on COX-2 (setting [1]) and at ovine COX-1 (Table 3) was below 4.60 in each case.
`COc1ccc2c(c1)c(CC(=O)NCCCCNC(=O)c1ccc(C(=O)[O-])c(-c3c4ccc(=[N+](C)C)cc-4oc4cc(N(C)C)ccc34)c1)c(C)n2C(=O)c1ccc(Cl)cc1` [Compound 27xx]: the pIC50 at COX-2 (setting [1]) and on ovine COX-1 (Table 3) was below 4.60 in each case.
Regarding `CCCCNC(=O)Cc1c(C)n(C(=O)c2ccc(Cl)cc2)c2ccc(OC)cc12` [Compound 27nnn], the pIC50 at COX-2 (setting [1]) and at ovine COX-1 (Table 3) was below 4.60 throughout.
For the compound `COSc1ccc(-n2nc(C(=O)OC)cc2-c2ccc(C)cc2)cc1` [Compound 29c], the negative logarithm of the IC50 (pIC50) on COX-2 (setting [2]) and against ovine COX-1 (Table 2) was below 4.60 throughout.
For `COc1ccc2c(c1)c(CC(=O)NCCCNC(=O)c1ccc(C(=O)[O-])c(C3=c4cc5c6c(c4Oc4c3cc3c7c4CCCN7CCC3)CCC[N+]=6CCC5)c1)c(C)n2C(=O)c1ccc(Cl)cc1` [Compound 27yy], the pIC50 at COX-2 (setting [1]) and against ovine COX-1 (Table 3) was below 4.60 throughout.
On to `COc1ccc2c(c1)c(CC(=O)Nc1ccc(S(=O)(=O)Nc3cc(OC)nc(OC)n3)cc1)c(C)n2C(=O)c1ccc(Cl)cc1` [Compound 27u], for which the pIC50 at COX-2 (setting [2]) was 6.83.
As for `COc1ccc2c(c1)c(CC(=O)N1CCN(C(=O)c3ccc(C(=O)O)c(-c4c5ccc(=O)cc-5oc5cc(O)ccc45)c3)CC1)c(C)n2C(=O)c1ccc(Cl)cc1` [Compound 27tt], the pIC50 on COX-2 (setting [1]) and at ovine COX-1 (Table 3) was below 4.60 each time.
Consider `Cc1ccc(-c2cc(CCC(=O)NCCN)nn2-c2ccc(S(C)(=O)=O)cc2)cc1` [Compound 29f], for which the pIC50 on COX-2 (setting [2]) and on ovine COX-1 (Table 2) was below 4.60 throughout.
In the case of `COc1ccc2c(c1)c(CC(=O)NCCN1CCN(C(=O)c3ccc(C(=O)[O-])c(C4=c5cc6c7c(c5Oc5c4cc4c8c5CCCN8CCC4)CCC[N+]=7CCC6)c3)CC1)c(C)n2C(=O)c1ccc(Cl)cc1` [Compound 27ccc], the negative-log IC50 (pIC50) at COX-2 (setting [1]) and on ovine COX-1 (Table 3) was below 4.60 in each case.
For `COc1ccc2c(c1)c(CC(=O)NCCCCNC(=S)Nc1ccc(-c3c4ccc(=O)cc-4oc4cc(O)ccc34)c(C(=O)O)c1)c(C)n2C(=O)c1ccc(Cl)cc1` [Compound 27ll], the pIC50 is 5.51 at COX-2 (setting [1]) and below 4.60 at ovine COX-1 (Table 3).
On to `CCN(CC)c1ccc2cc(C(=O)NCCCNC(=O)Cc3c(C)n(C(=O)c4ccc(Cl)cc4)c4ccc(OC)cc34)c(=O)oc2c1` [Compound 27gg], for which the figures for the pIC50 at COX-2 (setting [1]) and against ovine COX-1 (Table 3) were 7.28 and below 4.60, respectively.
For `COc1ccc2c(c1)c(CC(=O)NCCCCNC(=O)c1ccc(-c3c4ccc(=O)cc-4oc4cc(O)ccc34)c(C(=O)O)c1)c(C)n2C(=O)c1ccc(Cl)cc1` [Compound 27pp], the pIC50 at COX-2 (setting [1]) and against ovine COX-1 (Table 3) was below 4.60 throughout.
Take `CCN(CC)c1ccc2cc(C(=O)NCCCCNC(=O)Cc3c(C)n(C(=O)c4ccc(Cl)cc4)c4ccc(OC)cc34)c(=O)oc2c1` [Compound 27ff]: the figures for the pIC50 at COX-2 (setting [1]) and against ovine COX-1 (Table 3) were 7.51 and below 4.60, respectively.
For the compound `COc1ccc2c(c1)c(CC(=O)NCCNC(=O)/C=C(C)/C=C/C=C(C)/C=C/C1=C(C)CCCC1(C)C)c(C)n2C(=O)c1ccc(Cl)cc1` [Compound 27h], the pIC50 on COX-2 (purified enzyme, read-out: COX-2 IC50) was 6.97; against ovine COX-1 (Table 1), below 5.40.
Consider `COc1ccc2c(c1)c(CC(=O)NCCCNS(=O)(=O)c1ccc(/N=N/c3ccc(N(C)C)cc3)cc1)c(C)n2C(=O)c1ccc(Cl)cc1` [Compound 27bb], for which the pIC50 at COX-2 (setting [1]) was 6.87; at ovine COX-1 (Table 3) it was 6.67.
For `COc1ccc2c(c1)c(CCNC(=O)c1ccc(C(=O)[O-])c(C3=c4cc5c6c(c4Oc4c3cc3c7c4CCCN7CCC3)CCC[N+]=6CCC5)c1)c(C)n2Cc1ccc(Br)cc1` [Compound 28e], the pIC50 at COX-2 (setting [1]) and on ovine COX-1 (Table 3) was below 4.60 each time.
`COc1ccc2c(CC(=O)NCCNC(=O)Cc3c(C)n(C(=O)c4ccc(Cl)cc4)c4ccc(OC)cc34)cc(=O)oc2c1` [Compound 27dd]: the pIC50 on COX-2 (setting [1]) and on ovine COX-1 (Table 3) was below 4.60 in each case.
Regarding `COC(=O)c1cc(-c2ccc(C)cc2)n(-c2ccc(S(=O)(=O)N(C)C)cc2)n1` [Compound 31], the negative-log IC50 (pIC50) on COX-2 (setting [2]) and on ovine COX-1 (Table 2) was below 4.60 in each case.
With `COc1ccc2c(c1)c(CC(=O)N1CCN(C(=O)c3ccc(C(=O)[O-])c(C4=c5cc6c7c(c5Oc5c4cc4c8c5CCCN8CCC4)CCC[N+]=7CCC6)c3)CC1)c(C)n2C(=O)c1ccc(Cl)cc1` [Compound 27fff], the negative logarithm of the IC50 (pIC50) at COX-2 (setting [1]) and against ovine COX-1 (Table 3) was below 4.60 each time.
For the compound `COc1ccc2c(c1)c(CC(=O)NCCNC(=O)/C=C/c1ccc(N(C)C)cc1)c(C)n2C(=O)c1ccc(Cl)cc1` [Compound 27hh], the pIC50 at COX-2 (setting [1]) was 6.29; on ovine COX-1 (Table 3), below 4.60.
As for `COc1ccc2c(c1)c(CC(=O)NCCCNC(=O)c1cc3ccccc3oc1=O)c(C)n2C(=O)c1ccc(Cl)cc1` [Compound 27ee], the negative-log IC50 (pIC50) on COX-2 (setting [1]) is 6.22; against ovine COX-1 (Table 3) it was below 4.60.
For `Cc1ccc(C(=O)N2CCN(C(=O)c3ccc(C4=c5cc6c7c(c5Oc5c4cc4c8c5CCCN8CCC4)CCC[N+]=7CCC6)c(C(=O)[O-])c3)CC2)cc1` [Compound 32], the pIC50 at COX-2 (setting [1]) and against ovine COX-1 (Table 3) was below 4.60 each time.
Consider `COc1ccc2c(c1)c(CC(=O)N1CCNCC1)c(C)n2C(=O)c1ccc(Cl)cc1` [Compound 27ddd], for which the pIC50 at COX-2 (setting [1]) was below 4.60; against ovine COX-1 (Table 3), 5.74.
In the case of `COc1ccc2c(c1)c(CC(=O)NCCNC(=O)/C=C(C)/C=C/C=C(C)\C=C\C1=C(C)CCCC1(C)C)c(C)n2C(=O)c1ccc(Cl)cc1` [Compound 27s], the pIC50 on COX-2 (setting [2]) was 6.41; on ovine COX-1 (Table 2) it was below 4.60.
With `COc1ccc2c(c1)c(CCNC(=O)Cc1ccc(Nc3ccc([N+](=O)[O-])c4nonc34)cc1)c(C)n2Cc1ccc(Br)cc1` [Compound 28c], the negative logarithm of the IC50 (pIC50) on COX-2 (setting [1]) and at ovine COX-1 (Table 3) was below 4.60 throughout.
As to `COc1ccc2c(c1)c(CC(=O)NCCCNC(=S)Nc1ccc(-c3c4ccc(=O)cc-4oc4cc(O)ccc34)c(C(=O)O)c1)c(C)n2C(=O)c1ccc(Cl)cc1` [Compound 27kk], the pIC50 at COX-2 (setting [1]) and on ovine COX-1 (Table 3) was below 4.60 throughout.
Take `Cc1ccc(-c2cc(CCC(=O)O)nn2-c2ccc(S(C)(=O)=O)cc2)cc1` [Compound 29e]: at COX-2 (setting [2]), the pIC50 was below 4.60.
